# Assay results from paper PMC9610285 (Pharmaceutics, 2022).
# Read-outs that look alike come from different tables or passages of the source.
# Details: 1 mg single oral dose, fasting
# Method: The data used in this work were obtained from four bioequivalence clinical trials conducted at the Clinical Trials Unit of the Hospital Universitario de La Princesa (UECHUP) (EUDRA-CT IDs: 2012-004433-17, 2013-002159-14, 2014-001123-77 and 2021-000315-23). […] The reference formulation (R) in all cases was Azilect® 1 mg tablets (TEVA Pharmaceuticals Europe B.V.), which was compared against different test formulations (T), all of them 1 mg tablets, except in clinical trial 3, whose test formulation was orodispersible 1 mg. The four bioequivalence trials had two periods and two sequences (TR and RT). In the first period, the volunteers randomly were administered one of the two formulations and, in the following period, after a 7-day washout period, the opposite formulation. All of them were reviewed and approved by Independent Ethics Board (IEB) of the Hospital Universitario de La Princesa, and by the Spanish Drug Agency (AEMPS). In addition, they were performed in accordance with the guidelines of the International Conference on Harmonization for Good Clinical Practice (ICH-GCP), current Spanish legislation and the Revised Declaration of Helsinki. The pharmacogenetic study (SFC-FG-2020-1) was likewise approved by the IEB of Hospital Universitario de La Princesa (registry number 4176, 9 July 2020).
# In each period, the drug was administered under fasting conditions, which were maintained until 5 h after drug administration. Each subject provided 20 or 21 blood samples (depending on the clinical trial) that were extracted by BD Vacutainer® vacuum system with EDTA K2 tubes for analysis at different times between 0 h (before receiving the drug) and up to 12 h after drug intake. […] A high-performance liquid chromatography coupled to triple quadrupole mass spectrometry (HPLC-MS/MS) analytical method was used. The latter was validated according to European regulations for bioequivalence assessment, with a lower limit of quantification (LLOQ) of 10 pg/mL and a calibration range of 10–10,000 pg/mL.
# Pharmacokinetic parameters were calculated with WinNonlin Professional (Scientific Consulting, Inc., Cary, NC, USA) following a non-compartmental model. The area under the curve (AUC0-t), was obtained by the trapezoidal method. The extrapolation to infinity (AUC0-∞) was determined by the sum of two partial AUCs: AUCt-∞ calculated by the ratio Ct/k, where Ct is the last detectable concentration and k the elimination slope; plus AUC0-t. Cmax and tmax were directly obtained from the plasma time-concentration curves. t1/2 was calculated as Ln2/k. Plasma clearance adjusted for bioavailability (Cl/F) was calculated as dose/AUC. Finally, the volume of distribution adjusted for bioavailability (Vd/F) was calculated by dividing Cl/F by k.
# The SPSS software (v23.0, SPSS Inc., Chicago, IL, USA) was used for statistical analyses. AUC0-∞, and Cmax were divided by the dose/weight (DW) ratio to correct sex-related variability related to a varying weight. For the same purpose, Vd/F and Cl/F were divided by weight. With the purpose of normalizing their distributions, all pharmacokinetic parameters were logarithmically transformed for statistical analysis. Initially, a univariate analysis was conducted of the demographic characteristics according to sex and ethnicity, and of the pharmacokinetic parameters or ADR incidence based on sex, biogeographical group (hereinafter, “ethnicity”), genotypes and phenotypes. T-tests were used for the comparison of means for variables with two categories and ANOVA tests for variables with three or more categories, followed by a Bonferroni post-hoc. The Shapiro–Wilk test was used to address the normality of demographic characteristics. For those not following a normal distribution, the nonparametric Kruskal–Wallis test was used.
# [1] = CYP1A2 *1N/*1K, *1N/*1L, *1N/*1L and *1N/*1G merged, n=4
smiles,measurement,setting,value
"C#CCN[C@@H]1CCc2ccccc21 [rasagiline, Rasagiline]","lower tmax value, ABCC2 rs2273697 A/A vs G allele carriers",,approximately 50%
same,AUC0-∞/DW,"ABCB1 rs1045642 A/A, n=23",275.48 ± 59.65 ng·kg·h/mL/mg
same,Cmax/DW,"ABCB1 rs1045642 A/A, n=23",438.76 ± 152.32 ng·kg/mL/mg
same,t1/2,"ABCB1 rs1045642 A/A, n=23",2.58 ± 0.63 h
same,tmax,"ABCB1 rs1045642 A/A, n=23",0.50 ± 0.21 h
same,AUC0-∞/DW,"ABCB1 rs1045642 G/A, n=61",273.00 ± 83.60 ng·kg·h/mL/mg
same,Cmax/DW,"ABCB1 rs1045642 G/A, n=61",426.48 ± 179.87 ng·kg/mL/mg
same,t1/2,"ABCB1 rs1045642 G/A, n=61",2.63 ± 1.04 h
same,tmax,"ABCB1 rs1045642 G/A, n=61",0.51 ± 0.27 h
same,AUC0-∞/DW,"ABCB1 rs1045642 G/G, n=34",244.10 ± 63.87 (pm = 0.012) h*ng*kg/mL*mg
same,Cmax/DW,"ABCB1 rs1045642 G/G, n=34",359.70 ± 127.40 ng·kg/mL/mg
same,t1/2,"ABCB1 rs1045642 G/G, n=34",2.83 ± 0.73 h
same,tmax,"ABCB1 rs1045642 G/G, n=34",0.47 ± 0.19 h
same,AUC0-∞/DW,"ABCC2 rs2273697 A/A, n=3",350.15 ± 86.34 ng·kg·h/mL/mg
same,Cmax/DW,"ABCC2 rs2273697 A/A, n=3",579.28 ± 133.19 ng·kg/mL/mg
same,t1/2,"ABCC2 rs2273697 A/A, n=3",3.01 ± 0.49 h
same,tmax,"ABCC2 rs2273697 A/A, n=3","0.22 ± 0.09 (pu = 0.005, pm = 0.001) ^& h"
same,AUC0-∞/DW,"ABCC2 rs2273697 G/A, n=42",264.50 ± 74.33 ng·kg·h/mL/mg
same,Cmax/DW,"ABCC2 rs2273697 G/A, n=42",411.51 ± 152.39 ng·kg/mL/mg
same,t1/2,"ABCC2 rs2273697 G/A, n=42",2.59 ± 0.90 h
same,tmax,"ABCC2 rs2273697 G/A, n=42",0.48 ± 0.19 h
same,AUC0-∞/DW,"ABCC2 rs2273697 G/G, n=73",262.04 ± 73.57 ng·kg·h/mL/mg
same,Cmax/DW,"ABCC2 rs2273697 G/G, n=73",401.58 ± 167.92 ng·kg/mL/mg
same,t1/2,"ABCC2 rs2273697 G/G, n=73",2.71 ± 0.89 h
same,tmax,"ABCC2 rs2273697 G/G, n=73",0.51 ± 0.26 h
same,AUC0-∞/DW,"COMT rs4680 A/A, n=26","236.37 ± 68.34 (pu = 0.018, pm = 0.008) h*ng*kg/mL*mg"
same,Cmax/DW,"COMT rs4680 A/A, n=26","355.69 ± 168.61 (pu = 0.012, pm = 0.035) ng*kg/mL*mg"
same,t1/2,"COMT rs4680 A/A, n=26",2.74 ± 1.00 h
same,tmax,"COMT rs4680 A/A, n=26",0.50 ± 0.22 h
same,AUC0-∞/DW,"COMT rs4680 G/A, n=56",285.72 ± 81.43 ng·kg·h/mL/mg
same,Cmax/DW,"COMT rs4680 G/A, n=56",450.03 ± 166.19 ng·kg/mL/mg
same,t1/2,"COMT rs4680 G/A, n=56",2.71 ± 0.95 h
same,tmax,"COMT rs4680 G/A, n=56",0.47 ± 0.18 h
same,AUC0-∞/DW,"COMT rs4680 G/G, n=36",253.96 ± 59.13 ng·kg·h/mL/mg
same,Cmax/DW,"COMT rs4680 G/G, n=36",385.75 ± 140.56 ng·kg/mL/mg
same,t1/2,"COMT rs4680 G/G, n=36",2.58 ± 0.68 h
same,tmax,"COMT rs4680 G/G, n=36",0.52 ± 0.32 h
same,AUC0-∞/DW,"CYP1A2 *1B/*1B, n=6",226.81 ± 52.00 ng·kg·h/mL/mg
same,Cmax/DW,"CYP1A2 *1B/*1B, n=6",411.84 ± 85.38 ng·kg/mL/mg
same,t1/2,"CYP1A2 *1B/*1B, n=6",1.87 ± 0.6 h
same,tmax,"CYP1A2 *1B/*1B, n=6",0.42 ± 0.18 h
same,AUC0-∞/DW,"CYP1A2 *1B/*1F, n=36",265.27 ± 80.68 ng·kg·h/mL/mg
same,Cmax/DW,"CYP1A2 *1B/*1F, n=36",426.5 ± 183.44 ng·kg/mL/mg
same,t1/2,"CYP1A2 *1B/*1F, n=36",2.66 ± 0.9 h
same,tmax,"CYP1A2 *1B/*1F, n=36",0.44 ± 0.19 h
same,AUC0-∞/DW,"CYP1A2 *1B/*1L, n=4",275.25 ± 108.77 ng·kg·h/mL/mg
same,Cmax/DW,"CYP1A2 *1B/*1L, n=4",392.87 ± 133.43 ng·kg/mL/mg
same,t1/2,"CYP1A2 *1B/*1L, n=4",3.32 ± 1.62 h
same,tmax,"CYP1A2 *1B/*1L, n=4",0.46 ± 0.16 h
same,AUC0-∞/DW,"CYP1A2 *1B/*1N, n=5",256.33 ± 116.11 ng·kg·h/mL/mg
same,Cmax/DW,"CYP1A2 *1B/*1N, n=5",327.66 ± 320.93 ng·kg/mL/mg
same,t1/2,"CYP1A2 *1B/*1N, n=5",3 ± 0.78 h
same,tmax,"CYP1A2 *1B/*1N, n=5",0.6 ± 0.28 h
same,AUC0-∞/DW,"CYP1A2 *1F/*1F, n=38",263.28 ± 60.08 ng·kg·h/mL/mg
same,Cmax/DW,"CYP1A2 *1F/*1F, n=38",403.23 ± 139.11 ng·kg/mL/mg
same,t1/2,"CYP1A2 *1F/*1F, n=38",2.69 ± 0.82 h
same,tmax,"CYP1A2 *1F/*1F, n=38",0.51 ± 0.21 h
same,AUC0-∞/DW,"CYP1A2 *1J/*1N, n=5",275.39 ± 91.37 ng·kg·h/mL/mg
same,Cmax/DW,"CYP1A2 *1J/*1N, n=5",435.74 ± 117.78 ng·kg/mL/mg
same,t1/2,"CYP1A2 *1J/*1N, n=5",2.15 ± 0.83 h
same,tmax,"CYP1A2 *1J/*1N, n=5",0.43 ± 0.09 h
same,AUC0-∞/DW,"CYP1A2 *1L/*1F, n=11",285.81 ± 77.84 ng·kg·h/mL/mg
same,Cmax/DW,"CYP1A2 *1L/*1F, n=11",389.59 ± 138.34 ng·kg/mL/mg
same,t1/2,"CYP1A2 *1L/*1F, n=11",2.55 ± 1.07 h
same,tmax,"CYP1A2 *1L/*1F, n=11",0.64 ± 0.48 h
same,AUC0-∞/DW,"CYP1A2 *1L/*1L, n=6",301.28 ± 89.3 ng·kg·h/mL/mg
same,Cmax/DW,"CYP1A2 *1L/*1L, n=6",518.16 ± 158.15 ng·kg/mL/mg
same,t1/2,"CYP1A2 *1L/*1L, n=6",3.06 ± 0.38 h
same,tmax,"CYP1A2 *1L/*1L, n=6",0.53 ± 0.17 h
same,AUC0-∞/DW,[1],220.53 ± 87.92 ng·kg·h/mL/mg
same,Cmax/DW,[1],355.79 ± 242.1 ng·kg/mL/mg
same,t1/2,[1],2.94 ± 0.69 h
same,tmax,[1],0.5 ± 0.14 h
same,AUC0-∞/DW,"CYP2C19 µM, n=3",205.53 ± 82.32 ng·kg·h/mL/mg
same,Cmax/DW,"CYP2C19 µM, n=3",347.93 ± 233.78 ng·kg/mL/mg
same,t1/2,"CYP2C19 µM, n=3",1.75 ± 0.67 h
